Test results: patent publication US20060045884A1, “Vaccines for autoimmune and infectious disease” (Board of Regents, priority 2004, published 2006)
Entries after “also recorded” stand apart in the source; their conditions may differ. Where two headings read alike, the source gives them in different places.

Assays:
[1] = test system: peptide-loaded T2 cells; assay: Induction of primary CTL responses with peptide-pulsed T2 cells and 4-hr cytotoxicity against peptide-loaded T2 cells; format: cell-based, human; conditions: for donors in which peptide-stimulated CTL lines killed CCNE1144-152- and CCNE2144-152-pulsed T2 cells: PBMCs from 7 HLA-A2 positive normal donors; for peptide-specific lysis by CTL line generated against the MPO peptide: T2 cells loaded with 2.0 μg/mL of the same peptide; for elicitation of peptide specific CTL lines: different donors and differing peptide concentrations; for peptide-specific lysis by CTL line generated against the peptide: T2 cells loaded with 1.0 μg/mL of the same peptide, E:T 50:1 to 6:1
[2] = test system: HLA-A2.1 positive human myeloid leukemia cells; assay: 4-hr cytotoxicity of peptide-specific CTL against leukemia cells, normal marrow and cell lines; format: cell-based; conditions: not non-transfected K562
Method: CTL cytotoxicity assay. A semi-automated minicytotoxicity assay was used to determine specific lysis as described previously (Molldrem, 2000; Molldrem et al., 1996). Briefly, effector cells were prepared in doubling dilutions from 6×10^3 to 25×10^3 cells/well and were plated in 40 μl, 60-well Terasaki trays (Robbins Scientific, Sunnyvale, Calif., USA) with six replicates per dilution. Target cells (T2 cells, marrow-derived leukemic cells, or BM from a healthy donor) at a concentration of 2×10^6 cells/ml were stained with 10 μg/ml of Calcein-AM (Molecular Probes Inc.) for 60 min at 37° C. […] Wells with target cells alone and medium alone were used for maximum (max) and minimum (min.) fluorescence emission, respectively. After 4 hr incubation at 37° C. in 5% CO2, 5 μl FluoroQuench (One Lambda Inc., Canoga Park, Calif., USA) was added to each well, and the trays were centrifuged for 1 min at 60 g before measurement of fluorescence using an automated CytoFluor II plate reader (PerSeptive Biosystems, Framingham, Mass., USA). The percentage of lysis was calculated as follows: % lysis={1−[(mean experimental mission−mean min.)/(mean max−mean min.)]}×100%.
PR1 specific CTL preferentially lyse human myeloid leukemia cells. It was next determined whether the PR1-specific CTL line was capable of lysing allogeneic human myeloid leukemia cells from HLA-A2.1 positive individuals. […]

[3] = test system: PBMCs from HLA-A2+ CML patients; format: cell-based, human
[4] = biological target: HLA-A2.1 (Homo sapiens, UniProt P04439, D140Y/D185E/D98H/E176V/E277Q/G131W/G231S/I119V/I121R/I166T/I218V/L300P/L318F/N151K/N90K/P208A/P217A/Q86G/Q94H/R138H/R169H/T345S); assay: Peptide binding: HLA-A2.1 surface expression on peptide-coated T2 cells by indirect flow cytometry; conditions: for Median Channel of Fluorescence of HLA-A2 Expression on T2: background HLA-A2 without peptide 22; for surface HLA-A2.1 expression compared with T2 cells with no added peptide: result in words; for peptide binding to HLA-A*0201, fluorescence intensity versus positive control peptide (Influenza B Nuclear Protein): T2 cells pulsed 18 hr
[5] = test system: PBMC from HLA-A2.1+ healthy donor; assay: PR1/HLA-A2 tetramer staining of CTL elicited from healthy donor PBMC with PR1-pulsed T2 cells; format: cell-based, human
[6] = test system: HLA-A2+ patients with CML, AML or MDS; assay: Phase I/II PR1 peptide vaccine study; format: in vivo, human; conditions: 9 patients
Description: To test this in refractory leukemia patients, a phase I/II vaccine study was initiated. HLA-A2^+ patients with CML (interferon-resistant or relapsed after BMT), AML (smoldering relapse or ≧2nd CR) or MDS (RAEB or RAEBt) with no detectable antibodies to proteinase 3 (no detectable cANCA) were eligible. Patients that relapsed after BMT or those ineligible for BMT were also eligible for study. Pregnant patients, HIV+ patients, and those with known vasculitis were excluded. Patients were required to have immunosuppression (i.e. cyclosporine, steroids) discontinued 4 weeks prior to study entry.
Secondarily, clinical responses were assessed by standard criteria with bone marrow biopsy, cytogenetic studies (standard chromosome banding) and molecular studies (PCR for bcr-abl or other known abnormalities such as t(15;17), inv16, etc.) 3 weeks after the last vaccination. Patients were seen and evaluated in clinic every 3 weeks during the study period. Both vialed PR1 peptide (NSC698102) and the adjuvant (Montanide ISA-51, NSC675756) were used in this study.
The overall study was divided into two parts: Phase I consisted of nine patients treated in cohorts of three at 1 of 3 dose levels of 0.25 mg, 0.5 mg, or 1.0 mg of PR1 peptide given subcutaneously in incomplete Freund's adjuvant (Montanide ISA-51) and GM-CSF 75 mg subcutaneously every 3 weeks for 3 injections. […]

[7] = test system: PR1-CTL from a healthy donor; assay: Annexin V staining of PR1-CTL 16 to 18 hr after challenge with peptide-pulsed T2 cells; format: cell-based, human; conditions: for apoptosis of high avidity PR1-CTL: T2 cells pulsed with 20 μM peptide
Description: High PR1 concentration and proteinase 3-overexpressing CML cells induce apoptosis of high avidity PR1-specific CTL. […] All high avidity PR1-CTL exposed to high dose PR1 were dead after 36 to 48 hr of co-culture.

Substance: ILLDWLLEV [CCNE2144-152]
- donors in which peptide-stimulated CTL lines killed CCNE1144-152- and CCNE2144-152-pulsed T2 cells [1]: 4 of 7

Substance: ILLDWLMEV [CCNE1144-152]
- peptide-stimulated CTL lines that killed HLA-A2 transfected K562 leukemic cell line [2]: one of 4
- donors in which peptide-stimulated CTL lines killed CCNE1144-152- and CCNE2144-152-pulsed T2 cells [1]: 3 of 7

Substance: NLVPMVATV [pp65 peptide, reference compound]
- avidity of CTLs elicited with pp65 peptide-pulsed T2 cells [3]: high-avidity p65-specific CTLs

Substance: KLLLALAGL [MY2]
- peptide-specific lysis by CTL line generated against the MPO peptide [1]: high specific lysis

Substance: RLFEQVMRI [MY4]
- peptide-specific lysis by CTL line generated against the MPO peptide [1]: tested similarly

Substance: SLWRRPFNV [MY1]
- elicitation of peptide specific CTL lines [1]: No peptide specific CTL lines could be elicited

Substance: LLSYFKQPV [MY3]
- elicitation of peptide specific CTL lines [1]: No peptide specific CTL lines could be elicited

Substance: RLFPDFFTRV [PR2]
- Median Channel of Fluorescence of HLA-A2 Expression on T2 [4]: 273
- surface HLA-A2.1 expression compared with T2 cells with no added peptide [4]: increased surface HLA-A2.1 expression
- peptide-specific lysis by CTL line generated against the peptide [1]: did not demonstrate any significant cytotoxicity

Substance: LIQPFMFRL [MY5]
- elicitation of peptide specific CTL lines [1]: No peptide specific CTL lines could be elicited

Substance: KLNDVLLIQL [PR7V]
- peptide binding to HLA-A*0201, fluorescence intensity versus positive control peptide (Influenza B Nuclear Protein) [4]: strong peptide binding

Substance: KLNDILLIQL [PR7I]
- peptide binding to HLA-A*0201, fluorescence intensity versus positive control peptide (Influenza B Nuclear Protein) [4]: strong peptide binding

Substance: VLQELNVTV [PR1, HLA-A2.1-restricted nonamer (aa 169-177) derived from proteinase 3]
- avidity of PR1-CTL that could be elicited from CML patients ([3]; CML #1, #2, #3, weekly PR1 stimulation): Only low-avidity PR1-CTLs could be elicited; also recorded: Only low avidity PR1-CTL could be elicited
- lowest PR1 concentration eliciting PR1-CTLs ([3]; patient 1): ≥ 0.2 µM
- lowest PR1 concentration eliciting low-avidity PR1-CTLs ([3]; patient 2): 0.02 µM
- lowest PR1 concentration eliciting low-avidity PR1-CTLs ([3]; patient 3): 0.002 µM
- surface HLA-A2 expression on T2 cells versus PR1 concentration ([4]; PR1 from 2 μM and 200 μM): increases linearly
- Median Channel of Fluorescence of HLA-A2 Expression on T2 [4]: 294
- surface HLA-A2.1 expression compared with T2 cells with no added peptide [4]: increased surface HLA-A2.1 expression
- high intensity PR1/HLA-A2 tetramer-staining CTL elicited ([5]; 0.2 μM PR1 weekly for 28 days): 1.3%
- median channel of flourescence (MCF) of tetramer staining ([5]; 20 μM PR1): 93
- low avidity PR1-specific CTL elicited ([5]; 20 μM PR1 weekly for 28 days): 3.1%
- bulk culture CTL double-positive for anti-CD8 and PR1-tetramer ([5]; 32 day-old PR1-stimulated CTL culture): 4.3%
- fraction of CTL line specific for PR1 (CD8/PR1-tetramer) ([5]; day 17 CTL line elicited against PR1): 2.4%
- PR1-CTL induced ([5]; ≦0.02 μM PR1): < 0.1%
- peptide-specific lysis by CTL line generated against the peptide [1]: high specific lysis
- PR1-specific CTL immunity elicited (by tetramer staining) [6]: 6 of 9
- complete remissions [6]: 2 patients
- apoptosis of high avidity PR1-CTL [7]: underwent apoptosis
- apoptosis of low avidity PR1-CTL ([7]; high or low concentrations of PR1): did not undergo apoptosis

Substance: Influenza nucleoprotein: control influenza peptide, Influenza B nucleoprotein (aa 85-94), known high binding affinity to HLA-A2.1 (KLGEFYNQMM) [reference compound]
- Median Channel of Fluorescence of HLA-A2 Expression on T2 [4]: 194
- apoptosis of high avidity PR1-CTL [7]: no apoptosis was observed
